Source: ChEMBL document CHEMBL1147581, “Development of novel lipid-peptide hybrid compounds with antibacterial activity from natural cationic antibacterial peptides” (Bioorg Med Chem Lett, 2004)
Values after ≈ are worked out from the molar mass of the structure shown. Active and inactive are the calls of the source. The calls are words filed in the database; no cut-off is given here. Non-standard residues stand in square brackets, D forms with d. Residues, ends and D or L forms follow the SMILES beside them. *: point of attachment. Palmitoleoyl = CCCCCC/C=C\CCCCCCCC(=O)*; PhAc = O=C(Cc1ccccc1)*; Bz = O=C(c1ccccc1)*; Ahx = NCCCCCC(=O)O

Experiments:
Staphylococcus aureus = test: Minimum inhibitory concentration against Staphylococcus aureus ATCC 6538; type: functional
[1] = Stability of the peptide in the presence of mouse serum; type: ADME, organism-based
Candida albicans [2] = test: Minimum inhibitory concentration against Candida albicans ATCC 36232; NA = not active; type: functional, organism-based
Mus musculus [3] = species: Mus musculus; test: Concentration required for half-maximal lysis of mouse erythrocytes; type: functional
Pseudomonas aeruginosa [4] = test: Minimum inhibitory concentration against Pseudomonas aeruginosa ATCC 9027; NA = not active; type: functional, organism-based
[5] = Minimum inhibitory concentration against Micrococcus luteus ATCC 9341; type: functional
Escherichia coli [6] = test: Minimum inhibitory concentration against Escherichia coli ATCC 25922; NA = not active; type: functional, organism-based
Candida albicans [7] = test: Minimum inhibitory concentration against Candida albicans ATCC 36232; type: functional
Escherichia coli [8] = test: Minimum inhibitory concentration against Escherichia coli ATCC 25922; type: functional
Pseudomonas aeruginosa [9] = test: Minimum inhibitory concentration against Pseudomonas aeruginosa ATCC 9027; type: functional
Mus musculus [10] = species: Mus musculus; test: Concentration required for half-maximal lysis of mouse erythrocytes; NA = not active; type: functional, organism-based

| SMILES | MIC (Staphylococcus aureus) [µg/mL] | half-life [1] [min] | MIC (Candida albicans [2]) | HD50 (Mus musculus [3]) [µg/mL] | MIC (Pseudomonas aeruginosa [4]) | MIC [5] [µg/mL] | MIC (Escherichia coli [6]) | MIC (Candida albicans [7]) [µg/mL] | MIC (Escherichia coli [8]) [µg/mL] | MIC (Pseudomonas aeruginosa [9]) [µg/mL] | HD50 (Mus musculus [10]) |
| --- | --- | --- | --- | --- | --- | --- | --- | --- | --- | --- | --- |
| CC[C@H](C)[C@H](NC(=O)[C@H](Cc1ccc(O)cc1)NC(=O)[C@H](CCCCN)NC(=O)[C@H](CCCCN)NC(C)=O)C(=O)N[C@@H](CCCCN)C(=O)N[C@H](C(=O)N[C@@H](Cc1ccccc1)C(=O)N[C@H](C(=O)N[C@@H](Cc1ccccc1)C(=O)N[C@@H](CCCCN)C(N)=O)C(C)C)C(C)C (Ac-KKYIKVFVFK-NH2) | 100 (≈ 74.6 µM) | 30 |  |  |  |  |  |  |  |  |  |
| CC(=O)N[C@@H](Cc1ccc(O)cc1)C(=O)N[C@@H](CS)C(=O)N[C@@H](CC(N)=O)C(=O)NCC(=O)N[C@@H](CCCCN)C(=O)N[C@@H](CCCN=C(N)N)C(=O)N[C@H](C(=O)N[C@@H](CS)C(=O)N[C@H](C(=O)N[C@@H](CS)C(=O)N[C@@H](CCCN=C(N)N)C(N)=O)C(C)C)C(C)C (Ac-YCNGKRVCVCR-NH2) | 50 (≈ 37.3 µM) |  | inactive | >100 | inactive | 100 (≈ 74.5 µM) | inactive |  |  |  |  |
| CC[C@H](C)[C@H](NC(=O)[C@H](Cc1ccc(O)cc1)NC(=O)[C@H](CCCCN)NC(=O)[C@H](CCCCN)NC(=O)CCCCCNC(C)=O)C(=O)N[C@@H](CCCCN)C(=O)N[C@H](C(=O)N[C@@H](Cc1ccccc1)C(=O)N[C@H](C(=O)N[C@@H](Cc1ccccc1)C(=O)N[C@@H](CCCCN)C(N)=O)C(C)C)C(C)C (Ac-[Ahx]KKYIKVFVFK-NH2) | 6.3 (≈ 4.33 µM) | 45 |  |  |  |  |  |  |  |  |  |
| CC(=O)NCCCCCC(=O)N[C@@H](Cc1ccc(O)cc1)C(=O)N[C@@H](CS)C(=O)N[C@@H](CC(N)=O)C(=O)NCC(=O)N[C@@H](CCCCN)C(=O)N[C@@H](CCCN=C(N)N)C(=O)N[C@H](C(=O)N[C@@H](CS)C(=O)N[C@H](C(=O)N[C@@H](CS)C(=O)N[C@@H](CCCN=C(N)N)C(N)=O)C(C)C)C(C)C (Ac-[Ahx]YCNGKRVCVCR-NH2) | > 100 |  | inactive | >100 | inactive | > 100 | inactive |  |  |  |  |
| CC[C@H](C)[C@H](NC(=O)[C@H](Cc1ccc(O)cc1)NC(=O)[C@H](CCCCN)NC(=O)[C@H](CCCCN)NC(=O)c1ccccc1)C(=O)N[C@@H](CCCCN)C(=O)N[C@H](C(=O)N[C@@H](Cc1ccccc1)C(=O)N[C@H](C(=O)N[C@@H](Cc1ccccc1)C(=O)N[C@@H](CCCCN)C(N)=O)C(C)C)C(C)C (Bz-KKYIKVFVFK-NH2) [listing 1 of 2 here] |  | 30 |  |  |  |  |  |  |  |  |  |
| CC[C@H](C)[C@H](NC(=O)[C@H](Cc1ccc(O)cc1)NC(=O)[C@H](CCCCN)NC(=O)[C@H](CCCCN)NC(=O)c1ccccc1)C(=O)N[C@@H](CCCCN)C(=O)N[C@H](C(=O)N[C@@H](Cc1ccccc1)C(=O)N[C@H](C(=O)N[C@@H](Cc1ccccc1)C(=O)N[C@@H](CCCCN)C(N)=O)C(C)C)C(C)C (Bz-KKYIKVFVFK-NH2) [listing 2 of 2 here] | 50 (≈ 35.6 µM) |  |  |  |  |  |  |  |  |  |  |
| CC(C)[C@H](NC(=O)[C@H](CS)NC(=O)[C@@H](NC(=O)[C@H](CCCN=C(N)N)NC(=O)[C@H](CCCCN)NC(=O)CNC(=O)[C@H](CC(N)=O)NC(=O)[C@H](CS)NC(=O)[C@H](Cc1ccc(O)cc1)NC(=O)[C@@H](N)Cc1ccccc1)C(C)C)C(=O)N[C@@H](CS)C(=O)N[C@@H](CCCN=C(N)N)C(N)=O (H-FYCNGKRVCVCR-NH2) | 25 (≈ 17.3 µM) |  |  | >100 |  | 12.5 (≈ 8.64 µM) |  | 25 (≈ 17.3 µM) | 25 (≈ 17.3 µM) | 25 (≈ 17.3 µM) |  |
| CC(C)[C@H](NC(=O)[C@H](CS)NC(=O)[C@@H](NC(=O)[C@H](CCCN=C(N)N)NC(=O)[C@H](CCCCN)NC(=O)CNC(=O)[C@H](CC(N)=O)NC(=O)[C@H](CS)NC(=O)[C@H](Cc1ccc(O)cc1)NC(=O)[C@H](Cc1ccccc1)NC(=O)[C@@H](N)CCCCN)C(C)C)C(=O)N[C@@H](CS)C(=O)N[C@@H](CCCN=C(N)N)C(N)=O (H-KFYCNGKRVCVCR-NH2) | 6.3 (≈ 4 µM) |  |  | >100 |  | 6.3 (≈ 4 µM) |  | 12.5 (≈ 7.94 µM) | 25 (≈ 15.9 µM) | 50 (≈ 31.7 µM) |  |
| CC(C)[C@H](NC(=O)[C@H](CS)NC(=O)[C@@H](NC(=O)[C@H](CCCN=C(N)N)NC(=O)[C@H](CCCCN)NC(=O)CNC(=O)[C@H](CC(N)=O)NC(=O)[C@H](CS)NC(=O)[C@H](Cc1ccc(O)cc1)NC(=O)[C@H](CCCCN)NC(=O)[C@@H](N)CCCCN)C(C)C)C(=O)N[C@@H](CS)C(=O)N[C@@H](CCCN=C(N)N)C(N)=O (H-KKYCNGKRVCVCR-NH2) | 6.3 (≈ 4.05 µM) |  |  | >100 |  | 6.3 (≈ 4.05 µM) |  | 12.5 (≈ 8.03 µM) | 25 (≈ 16.1 µM) | 25 (≈ 16.1 µM) |  |
| CC[C@H](C)[C@H](NC(=O)[C@H](Cc1ccc(O)cc1)NC(=O)[C@H](CCCCN)NC(=O)[C@@H](N)CCCCN)C(=O)N[C@@H](CCCCN)C(=O)N[C@H](C(=O)N[C@@H](Cc1ccccc1)C(=O)N[C@H](C(=O)N[C@@H](Cc1ccccc1)C(=O)N[C@@H](CCCCN)C(N)=O)C(C)C)C(C)C (H-KKYIKVFVFK-NH2) | 6.3 (≈ 4.85 µM) | 8 |  |  |  |  |  |  |  |  |  |
| CC(C)[C@H](NC(=O)[C@H](CS)NC(=O)[C@@H](NC(=O)[C@H](CCCN=C(N)N)NC(=O)[C@H](CCCCN)NC(=O)CNC(=O)[C@H](CC(N)=O)NC(=O)[C@H](CS)NC(=O)[C@H](Cc1ccc(O)cc1)NC(=O)[C@@H](N)CCCCN)C(C)C)C(=O)N[C@@H](CS)C(=O)N[C@@H](CCCN=C(N)N)C(N)=O (H-KYCNGKRVCVCR-NH2) | 12.5 (≈ 8.75 µM) |  |  | >100 |  | 6.3 (≈ 4.41 µM) |  | 25 (≈ 17.5 µM) | 50 (≈ 35 µM) | 50 (≈ 35 µM) |  |
| CC(C)[C@H](NC(=O)[C@H](CS)NC(=O)[C@@H](NC(=O)[C@H](CCCN=C(N)N)NC(=O)[C@H](CCCCN)NC(=O)CNC(=O)[C@H](CC(N)=O)NC(=O)[C@H](CS)NC(=O)[C@@H](N)Cc1ccc(O)cc1)C(C)C)C(=O)N[C@@H](CS)C(=O)N[C@@H](CCCN=C(N)N)C(N)=O (H-YCNGKRVCVCR-NH2) | 25 (≈ 19.2 µM) |  |  | >100 |  | 25 (≈ 19.2 µM) |  | 25 (≈ 19.2 µM) | 12.5 (≈ 9.62 µM) | 50 (≈ 38.5 µM) |  |
| CC(C)[C@H](NC(=O)[C@H](CS)NC(=O)[C@@H](NC(=O)[C@H](CCCN=C(N)N)NC(=O)[C@H](CCCCN)NC(=O)CNC(=O)[C@H](CC(N)=O)NC(=O)[C@H](CS)NC(=O)[C@H](Cc1ccc(O)cc1)NC(=O)CCCCCN)C(C)C)C(=O)N[C@@H](CS)C(=O)N[C@@H](CCCN=C(N)N)C(N)=O (H-[Ahx]YCNGKRVCVCR-NH2) | 50 (≈ 35.4 µM) |  | inactive | >100 | inactive | 50 (≈ 35.4 µM) | inactive |  |  |  |  |
| CCCCCC/C=C\CCCCCCCC(=O)N[C@@H](Cc1ccc(O)cc1)C(=O)N[C@@H](CS)C(=O)N[C@@H](CC(N)=O)C(=O)NCC(=O)N[C@@H](CCCCN)C(=O)N[C@@H](CCCN=C(N)N)C(=O)N[C@H](C(=O)N[C@@H](CS)C(=O)N[C@H](C(=O)N[C@@H](CS)C(=O)N[C@@H](CCCN=C(N)N)C(N)=O)C(C)C)C(C)C (Palmitoleoyl-YCNGKRVCVCR-NH2) | > 100 |  | inactive | >100 | inactive | > 100 | inactive |  |  |  |  |
| CC(C)[C@H](NC(=O)[C@H](CS)NC(=O)[C@@H](NC(=O)[C@H](CCCN=C(N)N)NC(=O)[C@H](CCCCN)NC(=O)CNC(=O)[C@H](CC(N)=O)NC(=O)[C@H](CS)NC(=O)[C@H](Cc1ccc(O)cc1)NC(=O)Cc1ccccc1)C(C)C)C(=O)N[C@@H](CS)C(=O)N[C@@H](CCCN=C(N)N)C(N)=O (PhAc-YCNGKRVCVCR-NH2) | 100 (≈ 70.5 µM) |  | inactive | >100 | inactive | > 100 | inactive |  |  |  |  |
| CC[C@H](C)[C@H](NC(=O)CN)C(=O)NCC(=O)N[C@@H](CCCCN)C(=O)N[C@@H](Cc1ccccc1)C(=O)N[C@@H](CC(C)C)C(=O)N[C@@H](Cc1c[nH]cn1)C(=O)N[C@@H](CO)C(=O)N[C@@H](C)C(=O)N[C@@H](CCCCN)C(=O)N[C@@H](CCCCN)C(=O)N[C@@H](Cc1ccccc1)C(=O)NCC(=O)N[C@@H](CCCCN)C(=O)N[C@@H](C)C(=O)N[C@@H](Cc1ccccc1)C(=O)N[C@H](C(=O)NCC(=O)N[C@@H](CCC(=O)O)C(=O)N[C@H](C(=O)N[C@@H](CCSC)C(=O)N[C@@H](CC(N)=O)C(=O)N[C@@H](CO)C(=O)O)[C@@H](C)CC)C(C)C [MAGAININ 2] (H-GIGKFLHSAKKFGKAFVGEIMNS-OH) | 40 (≈ 16.2 µM) |  |  |  |  | 50 (≈ 20.3 µM) |  | 50 (≈ 20.3 µM) | 20 (≈ 8.11 µM) | 20 (≈ 8.11 µM) | inactive |
| CC[C@H](C)[C@H](NC(=O)CN)C(=O)NCC(=O)N[C@@H](C)C(=O)N[C@H](C(=O)N[C@@H](CC(C)C)C(=O)N[C@@H](CCCCN)C(=O)N[C@H](C(=O)N[C@@H](CC(C)C)C(=O)N[C@H](C(=O)N[C@H](C(=O)NCC(=O)N[C@@H](CC(C)C)C(=O)N1CCC[C@H]1C(=O)N[C@@H](C)C(=O)N[C@@H](CC(C)C)C(=O)N[C@H](C(=O)N[C@@H](CO)C(=O)N[C@@H](Cc1c[nH]c2ccccc12)C(=O)N[C@H](C(=O)N[C@@H](CCCCN)C(=O)N[C@@H](CCCNC(=N)N)C(=O)N[C@@H](CCCCN)C(=O)N[C@@H](CCCNC(=N)N)C(=O)N[C@@H](CCC(N)=O)C(=O)N[C@@H](CCC(N)=O)C(N)=O)[C@@H](C)CC)[C@@H](C)CC)[C@@H](C)O)[C@@H](C)O)C(C)C)C(C)C [MELITTIN] |  |  |  |  |  | 0.78 (≈ 0.274 µM) |  | 1.56 (≈ 0.548 µM) |  |  | inactive |
